{"source": "patent US11440907B1", "about": "(Merck Patent GmbH, priority 2018, dated 2022)"}
{"test_system": "β-catenin-TCF-mediated reporter transcription activity in Colo 205 cells", "experiment": "Colo 205 reporter assay (TCF/LEF promoter-driven firefly luciferase)", "type": "cell-based", "conditions": "Colo 205 TCF/LEF luciferase reporter, 5 hours after compound addition, 384 well; read-out: Colo205 IC50", "text": "(§1) The compounds of the invention described herein were screened using the assay procedure for β-catenin-TCF-mediated reporter transcription activity described below.\n(§2) Reporter cell lines were generated by stably transfecting cells of cancer cell lines (e.g., colon cancer) with a plasmid reporter construct (From SABiosciences, a QIAGEN company) that includes TCF/LEF promoter driving expression of the firefly luciferase gene. TCF/LEF reporter constructs were made in which TCF/LEF promoter, a promoter with optimal number of TCF/LEF binding sites designed by SABiosciences, was linked upstream of the firefly luciferase gene. This construct could also include a puromycin resistance gene as a selectable marker. This construct could also be used to stably transfect Colo 205 cells, a colon cancer cell line having a mutated APC gene that causes a constitutively active β-catenin. A control cell line was generated using another plasmid construct containing the luciferase gene under the control of a CMV basal promoter which is not activated by β-catenin.\n(§3) Colo 205 Cultured cells with a stably transfected reporter construct were plated at approximately 10,000 cells per well into 384 well multi-well plates for twenty four hours. The testing compounds were then added to the wells in 2-fold serial dilutions using a twenty micromolar top concentration. A series of control wells for each cell type received only compound solvent. Five hours after the addition of compound, reporter activity for luciferase was assayed, by addition of the SteadyGlo luminescence reagent (Promega). The reporter luminescence activity was measured using Pherastar plate reader (BMG Labtech). Readings were normalized to DMSO only treated cells, and normalized activities were then used in the IC50 calculations. The Colo 205 reporter assay data are summarized in Table 3: A<0.3 μM; 0.3 μM≤B<1.0 μM; 1.0 μM≤C<5.0 μM; D≥5.0 μM.", "units": {"IC50": "nM"}}
{"smiles": "Cc1cc(N2CCCOCC2c2cc([S+](C)[O-])ccc2Cl)nc(N)n1", "note": "(stereo not drawn) [I-123]", "IC50": "300 to 1000"}
{"test_system": "β-catenin-TCF-mediated reporter transcription activity in Colo 205 cells", "experiment": "Colo 205 reporter assay (TCF/LEF promoter-driven firefly luciferase)", "type": "cell-based", "conditions": "Homo sapiens; Colo 205 TCF/LEF luciferase reporter, 5 hours after compound addition, 384 well; read-out: Colo205 IC50", "text": "as §1, §2, §3", "units": {"IC50": "nM"}}
{"smiles": "CSc1ccccc1C1CCCCCN1c1cc(C)nc(N)n1", "note": "(racemic) [I-5, (+/−)-4-methyl-6-(2-(2-(methylthio)phenyl)azepan-1-yl)pyrimidin-2-amine]", "IC50": "300 to 1000"}
{"smiles": "Cc1cc(N2CCCOCC2c2ccccc2Cl)nc(N)n1", "note": "(racemic) [I-19, (+/−)-4-[3-(2-chlorophenyl)-1,4-oxazepan-4-yl]-6-methyl-pyrimidin-2-amine]", "IC50": "< 300"}
{"smiles": "Cc1cc(N2CCCOCC2c2ccccc2F)nc(N)n1", "note": "(racemic) [I-32, (+/−)-4-[3-(2-fluorophenyl)-1,4-oxazepan-4-yl]-6-methyl-pyrimidin-2-amine]", "IC50": "< 300"}
{"smiles": "Cc1cc(N2CCCOCC2c2ccc(F)cc2Cl)nc(N)n1", "note": "(racemic) [I-63, (+/−)-4-[3-(2-chloro-4-fluoro-phenyl)-1,4-oxazepan-4-yl]-6-methyl-pyrimidin-2-amine]", "IC50": "300 to 1000"}
{"smiles": "Cc1cc(N2CCCOCC2c2ccc(S(C)(=O)=O)cc2Cl)nc(N)n1", "note": "(racemic) [I-66, (+/−)-4-(3-(2-chloro-4-(methylsulfonyl)phenyl)-1,4-oxazepan-4-yl)-6-methylpyrimidin-2-amine]", "IC50": "1000 to 5000"}
{"smiles": "COc1cc(S(C)(=O)=O)ccc1C1CCCCCN1c1cc(C)nc(N)n1", "note": "(racemic) [I-88, (+/−)-4-(2-(2-methoxy-4-(methylsulfonyl)phenyl)azepan-1-yl)-6-methylpyrimidin-2-amine]", "IC50": "300 to 1000"}
{"smiles": "COc1ccc(OC)c(C2COCCCN2c2cc(C)nc(N)n2)c1", "note": "(racemic) [I-93, (+/−)-4-[3-(2,5-dimethoxyphenyl)-1,4-oxazepan-4-yl]-6-methyl-pyrimidin-2-amine]", "IC50": "300 to 1000"}
{"smiles": "Cc1cc(N2CCCOCC2c2cc([S+](C)[O-])ccc2Cl)nc(N)n1", "note": "(racemic) [I-110, (+/−)-4-(3-(2-chloro-5-(methylsulfinyl)phenyl)-1,4-oxazepan-4-yl)-6-methylpyrimidin-2-amine]", "IC50": "300 to 1000"}
{"smiles": "COC(=O)c1ccc(OC)c(C2CCCCCN2c2cc(C)nc(N)n2)c1", "note": "(racemic) [I-111, (+/−)-Methyl 3-(1-(2-amino-6-methylpyrimidin-4-yl)azepan-2-yl)-4-methoxybenzoate]", "IC50": "300 to 1000"}
{"smiles": "Cc1cc(N2CCCOCC2c2cc3c(cc2Cl)OCO3)nc(N)n1", "note": "(racemic) [I-113, (+/−)-4-[3-(6-chloro-1,3-benzodioxol-5-yl)-1,4-oxazepan-4-yl]-6-methyl-pyrimidin-2-amine]", "IC50": "300 to 1000"}
{"smiles": "COc1ccc(C(=O)N(C)C)cc1C1CCCCCN1c1cc(C)nc(N)n1", "note": "(racemic) [I-115, (+/−)-3-(1-(2-amino-6-methylpyrimidin-4-yl)azepan-2-yl)-4-methoxy-N,N-dimethylbenzamide]", "IC50": "300 to 1000"}
{"smiles": "COC(=O)c1ccc(Cl)c(C2COCCCN2c2cc(C)nc(N)n2)c1", "note": "(racemic) [I-126, (+/−)-Methyl 3-(4-(2-amino-6-methylpyrimidin-4-yl)-1,4-oxazepan-3-yl)-4-chlorobenzoate]", "IC50": "300 to 1000"}
{"smiles": "CNC(=O)c1ccc(Cl)c(C2COCCCN2c2cc(C)nc(N)n2)c1", "note": "(racemic) [I-129, (+/−)-3-(4-(2-amino-6-methylpyrimidin-4-yl)-1,4-oxazepan-3-yl)-4-chloro-N-methylbenzamide]", "IC50": "300 to 1000"}
{"smiles": "Cc1cc(N2CCCOCC2c2ccc(-n3cccn3)cc2Cl)nc(N)n1", "note": "(racemic) [I-133, (+/−)-4-(3-(2-chloro-4-(1H-pyrazol-1-yl)phenyl)-1,4-oxazepan-4-yl)-6-methylpyrimidin-2-amine]", "IC50": "300 to 1000"}
{"smiles": "Cc1cc(N2CCCOCC2c2ccc(NS(C)(=O)=O)cc2Cl)nc(N)n1", "note": "(racemic) [I-139, (+/−)-N-[4-[4-(2-amino-6-methyl-pyrimidin-4-yl)-1,4-oxazepan-3-yl]-3-chloro-phenyl]methanesulfonamide]", "IC50": "300 to 1000"}
{"smiles": "Cc1cc(N2CCCOCC2c2ccc(N)cc2Cl)nc(N)n1", "note": "(racemic) [I-140, (+/−)-4-[3-(4-amino-2-chloro-phenyl)-1,4-oxazepan-4-yl]-6-methyl-pyrimidin-2-amine]", "IC50": "< 300"}
{"smiles": "CC(=O)Nc1ccc(C2COCCCN2c2cc(C)nc(N)n2)c(Cl)c1", "note": "(racemic) [I-141, (+/−)-N-(4-(4-(2-amino-6-methylpyrimidin-4-yl)-1,4-oxazepan-3-yl)-3-chlorophenyl)acetamide]", "IC50": "< 300"}
{"smiles": "Cc1cc(N2CCCOCC2c2cc(O)ccc2Cl)nc(N)n1", "note": "(racemic) [I-147, (+/−)-3-[4-(2-amino-6-methyl-pyrimidin-4-yl)-1,4-oxazepan-3-yl]-4-chloro-phenol]", "IC50": "< 300"}
{"smiles": "Cc1cc(N2CCCOCC2c2ccc(C(=O)N3CCCC3)cc2Cl)nc(N)n1", "note": "(racemic) [I-151, (+/−)-(4-(4-(2-amino-6-methylpyrimidin-4-yl)-1,4-oxazepan-3-yl)-3-chlorophenyl)(pyrrolidin-1-yl)methanone]", "IC50": "300 to 1000"}
{"smiles": "Cc1cc(N2CCCOCC2c2ccc(C(=O)N(C)C3CCOCC3)cc2Cl)nc(N)n1", "note": "(racemic) [I-153, (+/−)-4-(4-(2-amino-6-methylpyrimidin-4-yl)-1,4-oxazepan-3-yl)-3-chloro-N-methyl-N-(tetrahydro-2H-pyran-4-yl)benzamide]", "IC50": "300 to 1000"}
{"smiles": "Cc1cc(N2CCCOCC2c2cc(-c3ccn[nH]3)ccc2Cl)nc(N)n1", "note": "(racemic) [I-157, (+/−)-4-(3-(2-chloro-5-(1H-pyrazol-5-yl)phenyl)-1,4-oxazepan-4-yl)-6-methyl-pyrimidin-2-amine]", "IC50": "300 to 1000"}
{"smiles": "Cc1cc(N2CCCOCC2c2cc(NC(=O)C(F)(F)F)ccc2Cl)nc(N)n1", "note": "(racemic) [I-159, (+/−)-N-[3-[4-(2-amino-6-methyl-pyrimidin-4-yl)-1,4-oxazepan-3-yl]-4-chloro-phenyl]-2,2,2-trifluoro-acetamide]", "IC50": "< 300"}
{"smiles": "Cc1cc(N2CCCOC[C@@H]2c2ccccc2Cl)nc(N)n1", "note": "(single isomer, unassigned) [I-31]", "IC50": "< 300"}
{"smiles": "Cc1cc(N2CCCOC[C@@H]2c2cc(N)ccc2Cl)nc(N)n1", "note": "(single isomer, unassigned) [I-87]", "IC50": "< 300"}
{"smiles": "Cc1cc(N2CCCOC[C@@H]2c2ccc(C#N)cc2Cl)nc(N)n1", "note": "(single isomer, unassigned) [I-97]", "IC50": "300 to 1000"}
{"smiles": "COc1cc(S(C)(=O)=O)ccc1[C@H]1CCCCCN1c1cc(C)nc(N)n1", "note": "(single isomer, unassigned) [I-99, 4-[2-(2-methoxy-4-methylsulfonyl-phenyl)azepan-1-yl]-6-methyl-pyrimidin-2-amine]", "IC50": "< 300"}
{"smiles": "COc1ccc(OC)c([C@H]2COCCCN2c2cc(C)nc(N)n2)c1", "note": "(single isomer, unassigned) [I-101]", "IC50": "< 300"}
{"smiles": "Cc1cc(N2CCCCC[C@@H]2c2cc(OC(C)C)ccc2Cl)nc(N)n1", "note": "(single isomer, unassigned) [I-108]", "IC50": "< 300"}
{"smiles": "COc1ccc(O)cc1[C@H]1CCCCCN1c1cc(C)nc(N)n1", "note": "(single isomer, unassigned) [I-127]", "IC50": "< 300"}
{"smiles": "COc1ccc(Cl)c([C@H]2CCCCCN2c2cc(C)nc(N)n2)c1", "note": "(single isomer, unassigned) [I-135]", "IC50": "300 to 1000"}
{"smiles": "COc1ccc(Cl)c([C@H]2COCCCN2c2cc(C)nc(N)n2)c1", "note": "(single isomer, unassigned) [I-138]", "IC50": "< 300"}
{"smiles": "Cc1cc(N2CCCOC[C@@H]2c2ccc(C(=O)N(C)C)cc2Cl)nc(N)n1", "note": "(single isomer, unassigned) [I-144]", "IC50": "300 to 1000"}
{"smiles": "Cc1cc(N2CCCOC[C@H]2c2cc(C(O)C(F)(F)F)ccc2Cl)nc(N)n1", "note": "(single isomer, unassigned) [I-146]", "IC50": "300 to 1000"}
{"smiles": "Cc1cc(N2CCCCCC2c2ccccc2F)nc(N)n1", "note": "(stereo not drawn) [I-36, 4-(2-(2-fluorophenyl)azepan-1-yl)-6-methylpyrimidin-2-amine]", "IC50": "300 to 1000"}
{"smiles": "Cc1cc(N2CCCOCC2c2cc([N+](=O)[O-])ccc2Cl)nc(N)n1", "note": "(stereo not drawn) [I-72, 4-(3-(2-chloro-5-nitrophenyl)-1,4-oxazepan-4-yl)-6-methylpyrimidin-2-amine]", "IC50": "300 to 1000"}
{"smiles": "CC(=O)Nc1ccc(Cl)c(C2COCCCN2c2cc(C)nc(N)n2)c1", "note": "(stereo not drawn) [I-84]", "IC50": "< 300"}
{"smiles": "COCC(=O)Nc1ccc(Cl)c(C2COCCCN2c2cc(C)nc(N)n2)c1", "note": "(stereo not drawn) [I-90]", "IC50": "300 to 1000"}
{"smiles": "CNC(=O)c1ccc(C2COCCCN2c2cc(C)nc(N)n2)c(Cl)c1", "note": "(stereo not drawn) [I-106]", "IC50": "< 300"}
{"smiles": "COc1ccc(O)cc1C1CCCCCN1c1cc(C)nc(N)n1", "note": "(stereo not drawn) [I-107, 3-[1-(2-amino-6-methyl-pyrimidin-4-yl)azepan-2-yl]-4-methoxy-phenol]", "IC50": "< 300"}
{"smiles": "Cc1cc(N2CCCOCC2c2cc([S+](C)[O-])ccc2Cl)nc(N)n1", "note": "(stereo not drawn) [I-122]", "IC50": "300 to 1000"}
{"smiles": "COc1ccc(Cl)cc1[C@H]1COCCCN1c1cc(C)nc(N)n1", "note": "[I-132, (S)-4-(3-(5-chloro-2-methoxyphenyl)-1,4-oxazepan-4-yl)-6-methylpyrimidin-2-amine]", "IC50": "300 to 1000"}
{"smiles": "CNC(=O)c1ccc(OC)c([C@H]2CCCCCN2c2cc(C)nc(N)n2)c1", "note": "[I-148, (R)-3-(1-(2-amino-6-methylpyrimidin-4-yl)azepan-2-yl)-4-methoxy-N-methylbenzamide]", "IC50": "< 300"}
{"smiles": "Cc1cc(N2CCCOCC2c2cc(NC(=O)OC(C)(C)C)ccc2Cl)nc(N)n1", "note": "(stereo not drawn) [I-158]", "IC50": "300 to 1000"}
{"smiles": "COc1ccc(F)cc1C1COCCCN1c1cc(C)nc(N)n1", "note": "(stereo not drawn) [I-284]", "IC50": "300 to 1000"}
